Data as given in PMC9136613 (Acta Pharmaceutica Sinica. B, 2022).

Molecular target: T1, CCT4 (Homo sapiens, UniProt P50991)
T1 sequence (P50991 2-539): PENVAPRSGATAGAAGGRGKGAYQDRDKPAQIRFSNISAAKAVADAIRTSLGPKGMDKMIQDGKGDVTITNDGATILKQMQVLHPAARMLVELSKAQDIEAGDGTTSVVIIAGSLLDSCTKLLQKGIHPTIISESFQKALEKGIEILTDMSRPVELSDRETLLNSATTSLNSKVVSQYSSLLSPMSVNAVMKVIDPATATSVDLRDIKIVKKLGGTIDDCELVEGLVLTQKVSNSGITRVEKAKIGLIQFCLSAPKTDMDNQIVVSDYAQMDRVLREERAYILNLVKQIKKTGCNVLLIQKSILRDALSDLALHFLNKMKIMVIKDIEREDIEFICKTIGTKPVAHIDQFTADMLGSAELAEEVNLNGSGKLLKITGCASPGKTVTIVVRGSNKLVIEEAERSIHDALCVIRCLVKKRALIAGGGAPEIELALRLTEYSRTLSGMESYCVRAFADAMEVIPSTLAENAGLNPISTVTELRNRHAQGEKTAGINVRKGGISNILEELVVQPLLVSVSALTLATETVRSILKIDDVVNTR
Assay: SPR on immobilized recombinant CCT4
Type: binding

anticarin-β
Kd: ~2200 nM
